Results taken from ChEMBL document CHEMBL1141432, “Mono- and Di-sesquiterpenoids from Chloranthus spicatus” (2007).
Converted amounts (≈) assume the structure as drawn.

How the values were obtained:
Candida albicans = test: Antifungal activity against Candida albicans by NCCLS M27-A method; format: functional
Candida parapsilosis = test: Antifungal activity against Candida parapsilosis by NCCLS M27-A method; format: functional; conditions: Lodderomyces parapsilosis

Structure (SMILES)	MIC (Candida albicans)	MIC (Candida parapsilosis)
CC1=C2C3=C4[C@@](C)(C(=O)[C@@]2(O)OC1=O)[C@@H]1C[C@@H]1[C@@]4(O)C[C@@H]1[C@]32OC(=O)C3=C2C[C@H]2[C@](O)(COC(=O)/C=C(\C)COC(=O)CCC(=O)OC3)[C@H]3C[C@@H]3[C@]12C [CHLORAHOLOLIDE B]	> 0.157 µM	> 0.157 µM
CC1=C2C3=C4[C@](C)([C@@H]5C[C@@H]5[C@@]4(O)C[C@@H]4[C@]35OC(=O)C3=C5C[C@H]5[C@](O)(COC(=O)/C=C(\C)COC(=O)CCC(=O)OC3)[C@H]3C[C@@H]3[C@]45C)[C@@H](O)[C@@]2(O)OC1=O [CHLORAMULTILIDE B]	0.068 µM (≈ 0.05 µg/mL)	0.068 µM (≈ 0.05 µg/mL)
CC1=C2C3=C4[C@](C)([C@@H]5C[C@@H]5[C@@]4(O)C[C@@H]4[C@]35OC(=O)C3=C5C[C@H]5[C@](O)(COC(=O)/C(C)=C/COC(=O)CCC(=O)OC3)[C@H]3C[C@H]3[C@]45C)[C@@H](O)[C@@]2(O)OC1=O [CHLORAMULTILIDE C]	> 0.157 µM	> 0.157 µM
C/C=C(\C)C(=O)OC[C@]1(O)[C@H]2C[C@H]2[C@]2(C)[C@@H]3C[C@@]4(O)C5=C(C6=C(C)C(=O)O[C@]6(O)[C@H](O)[C@@]5(C)[C@@H]5C[C@@H]54)[C@@]34OC(=O)C(CO)=C4C[C@@H]12 [CHLORAMULTILIDE D]	> 0.157 µM	> 0.157 µM
